Assay results from US20050032807A1, “Methods of treating inflammatory diseases with ammonium salts of ornitihine derivatives” (priority 2003, published 2005).

What was measured:
[1] = biological target: T1, dihydrofolate reductase (DHFR) (Mus musculus, UniProt P00375); conditions: Rosowsky et al., J. Med. Chem. 29, 655-660 (1986); cited from earlier work
T1 sequence (P00375 1-187): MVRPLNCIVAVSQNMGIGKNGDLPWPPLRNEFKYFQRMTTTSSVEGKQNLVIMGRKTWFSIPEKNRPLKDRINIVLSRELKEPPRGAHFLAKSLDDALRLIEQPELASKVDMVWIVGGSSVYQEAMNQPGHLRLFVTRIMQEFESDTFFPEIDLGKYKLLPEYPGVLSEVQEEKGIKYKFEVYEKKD

[2] = system: folylpolyglutamate synthetase (FPGS); conditions: Rosowsky et al., J. Med. Chem. 29, 655-660 (1986); cited from earlier work
[3] = system: cell growth in culture; conditions: Rosowsky et al., J. Med. Chem. 29, 655-660 (1986); cited from earlier work
[4] = lyophilization of the dilute ammonium hydroxide solution to the ammonium salt

NCCC[C@H](NC(=O)c1ccc(NCc2cnc3nc(N)nc(N)c3n2)cc1)C(=O)O [APA-L-Orn, N^α-(4-amino-4-deoxypteroyl)-L-ornithine]
inhibition of dihydrofolate reductase (DHFR) [1]: potent inhibitor
inhibition of folylpolyglutamate synthetase (FPGS) [2]: potent inhibitor
inhibition of cell growth in culture [3]: relatively inactive

N.N.Nc1nc(N)c2nc(CNc3ccc(C(=O)N[C@@H](CCCNC(=O)c4ccccc4C(=O)O)C(=O)O)cc3)cnc2n1 [compound 8, N^α-(4-Amino-4-deoxypteroyl)N^δ-hemiphthaloyl-L-ornithine ammonium salt]
product decomposition [4]: minimal
